# Reference: ChEMBL document CHEMBL1201862, “PubChem BioAssay data set” (2004)
#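 Exposure lasted 48 hours, with cells grown in 96-well plates and compounds tested at five concentrations. GI50: concentration for 50% inhibition of growth.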 Calls of active or inactive are those of the source. No stated cut-off is given here; in the data, active = GI50 up to about 1.1 µM and inactive = higher.
# Assays:
# Assay in all cases: inhibition of tumour cell growth, NCI panel, 48 h
# [1] = test system: 786-0
# [2] = test system: A549
# [3] = test system: BT-549
# [4] = test system: CAKI-1
# [5] = test system: CCRF-CEM
# [6] = test system: COLO 205
# [7] = test system: DU-145
# [8] = test system: EKVX
# [9] = test system: HCC 2998
# [10] = test system: HCT-116
# [11] = test system: HCT-15
# [12] = test system: HOP-62
# [13] = test system: HT-29
# [14] = test system: Hs-578T
# [15] = test system: IGROV-1
# [16] = test system: K562
# [17] = test system: KM12
# [18] = test system: M14
# [19] = test system: MCF7
# [20] = test system: MDA-MB-231
# [21] = test system: MDA-MB-435
# [22] = test system: MDA-N
# [23] = test system: MOLT-4
# [24] = test system: Malme-3M
# [25] = test system: NCI-H226
# [26] = test system: NCI-H23
# [27] = test system: NCI-H460
# [28] = test system: NCI/ADR-RES
# [29] = test system: OVCAR-3
# [30] = test system: OVCAR-4
# [31] = test system: OVCAR-5
# [32] = test system: OVCAR-8
# [33] = test system: PC-3
# [34] = test system: RPMI-8226
# [35] = test system: RXF 393
# [36] = test system: SF-268
# [37] = test system: SF-295
# [38] = test system: SF-539
# [39] = test system: SK-MEL-2
# [40] = test system: SK-MEL-5
# [41] = test system: SK-OV-3
# [42] = test system: SN12C
# [43] = test system: SNB-19
# [44] = test system: SNB-75
# [45] = test system: SR
# [46] = test system: SW-620
# [47] = test system: T47D
# [48] = test system: U-251
# [49] = test system: UACC-257
# [50] = test system: UACC-62
# [51] = test system: UO-31
# [52] = test system: A498
# [53] = test system: ACHN
# [54] = test system: HL-60
# [55] = test system: LOX IMVI
# [56] = test system: NCI-H522
# [57] = test system: SK-MEL-28
# [58] = test system: TK-10
structure (smiles),measurement,setting,value
COc1ccc(-c2nc(O)c3ccccc3n2)cc1OC,GI50,[1],36.1 µM (inactive)
same,GI50,[2],94.4 µM (inactive)
same,GI50,[3],64 µM (inactive)
same,GI50,[4],> 100 µM (inactive)
same,GI50,[5],> 100 µM (inactive)
same,GI50,[6],> 100 µM (inactive)
same,GI50,[7],> 100 µM (inactive)
same,GI50,[8],18.1 µM (inactive)
same,GI50,[9],> 100 µM (inactive)
same,GI50,[10],> 100 µM (inactive)
same,GI50,[11],50 µM
same,GI50,[12],33.8 µM (inactive)
same,GI50,[13],> 100 µM (inactive)
same,GI50,[14],29.2 µM (inactive)
same,GI50,[15],24.6 µM (inactive)
same,GI50,[16],> 100 µM (inactive)
same,GI50,[17],> 100 µM (inactive)
same,GI50,[18],> 100 µM (inactive)
same,GI50,[19],> 100 µM (inactive)
same,GI50,[20],24.4 µM (inactive)
same,GI50,[21],> 100 µM (inactive)
same,GI50,[22],> 100 µM (inactive)
same,GI50,[23],> 100 µM (inactive)
same,GI50,[24],> 100 µM (inactive)
same,GI50,[25],18.4 µM (inactive)
same,GI50,[26],> 100 µM (inactive)
same,GI50,[27],> 100 µM (inactive)
same,GI50,[28],28.2 µM (inactive)
same,GI50,[29],> 100 µM (inactive)
same,GI50,[30],> 100 µM (inactive)
same,GI50,[31],> 100 µM (inactive)
same,GI50,[32],24.4 µM (inactive)
same,GI50,[33],> 100 µM (inactive)
same,GI50,[34],54.2 µM (inactive)
same,GI50,[35],26.4 µM (inactive)
same,GI50,[36],25.2 µM (inactive)
same,GI50,[37],50.8 µM (inactive)
same,GI50,[38],37.8 µM (inactive)
same,GI50,[39],98.4 µM (inactive)
same,GI50,[40],> 100 µM (inactive)
same,GI50,[41],34.2 µM (inactive)
same,GI50,[42],26.5 µM (inactive)
same,GI50,[43],31.2 µM (inactive)
same,GI50,[44],23.8 µM (inactive)
same,GI50,[45],> 100 µM (inactive)
same,GI50,[46],> 100 µM (inactive)
same,GI50,[47],30.3 µM (inactive)
same,GI50,[48],23.1 µM (inactive)
same,GI50,[49],> 100 µM (inactive)
same,GI50,[50],> 100 µM (inactive)
same,GI50,[51],> 100 µM (inactive)
OC(C#Cc1ccccc1)(c1ccccc1)c1ccccc1,GI50,[1],> 100 µM (inactive)
same,GI50,[52],27.1 µM (inactive)
same,GI50,[2],21.2 µM (inactive)
same,GI50,[53],39 µM (inactive)
same,GI50,[3],51.1 µM (inactive)
same,GI50,[4],22.4 µM (inactive)
same,GI50,[5],11.6 µM (inactive)
same,GI50,[6],50.7 µM (inactive)
same,GI50,[7],30.1 µM (inactive)
same,GI50,[8],23.8 µM (inactive)
same,GI50,[9],50.6 µM (inactive)
same,GI50,[10],> 100 µM (inactive)
same,GI50,[11],39.5 µM
same,GI50,[54],38.6 µM (inactive)
same,GI50,[12],> 100 µM (inactive)
same,GI50,[13],26.7 µM (inactive)
same,GI50,[14],54.8 µM (inactive)
same,GI50,[15],43.7 µM (inactive)
same,GI50,[16],34.3 µM (inactive)
same,GI50,[17],28 µM (inactive)
same,GI50,[55],19 µM (inactive)
same,GI50,[18],> 100 µM (inactive)
same,GI50,[19],24 µM (inactive)
same,GI50,[20],51.8 µM (inactive)
same,GI50,[21],24.3 µM (inactive)
same,GI50,[22],23.4 µM (inactive)
same,GI50,[23],47.6 µM (inactive)
same,GI50,[24],24.2 µM (inactive)
same,GI50,[25],26.2 µM (inactive)
same,GI50,[26],53.5 µM (inactive)
same,GI50,[27],20.9 µM (inactive)
same,GI50,[56],30.9 µM (inactive)
same,GI50,[28],36.6 µM (inactive)
same,GI50,[29],26.7 µM (inactive)
same,GI50,[30],41.8 µM (inactive)
same,GI50,[31],30.5 µM (inactive)
same,GI50,[32],63.5 µM (inactive)
same,GI50,[33],31.9 µM (inactive)
same,GI50,[34],16.4 µM (inactive)
same,GI50,[36],21.4 µM (inactive)
same,GI50,[37],30.3 µM (inactive)
same,GI50,[38],77.1 µM (inactive)
same,GI50,[57],51.1 µM (inactive)
same,GI50,[39],23.8 µM (inactive)
same,GI50,[40],19 µM (inactive)
same,GI50,[41],> 100 µM (inactive)
same,GI50,[42],69.8 µM (inactive)
same,GI50,[43],70.6 µM (inactive)
same,GI50,[44],55.3 µM (inactive)
same,GI50,[45],37.4 µM (inactive)
same,GI50,[46],28.4 µM (inactive)
same,GI50,[47],18.9 µM (inactive)
same,GI50,[58],31 µM (inactive)
same,GI50,[48],26.7 µM (inactive)
same,GI50,[49],24.5 µM (inactive)
same,GI50,[50],35.4 µM (inactive)
same,GI50,[51],40.8 µM (inactive)
